Structures can show the parent of a compound that is named as a salt.
How the values were obtained:
[1] = tested on: gastric injuries induced by acidic alcohol; assay: gastric injuries induced by acidic alcohol (cytoprotection); assay type: in vivo, rat; conditions: acidic alcohol gastric injury, female rats, pretreatment 30 min; for % Inhibition at a dose of 10 mg/kg p.o.: Table 2
Description: (1) Assay of gastric injuries induced by acidic alcohol [A. Robert, Gastroenterology, 77, 761-767 (1979)]
Female rats weighing about 120 to 150 g fasted for 24 hours were used in this test. Test compounds suspended with Tween 80 were given orally to the animals through an intragastric tube. After a certain period (pretreatmenttime) acidic alcohol was given through the intragastric tube at a dose or 0.5 ml per 100 g of body weight. The animals were sacrificed after 1 hour, their stomach was removed and incised along the great curve. The length of the reddish-brown strips (haemorrhagic lesions) was measured and the mean total length per stomach was calculated. The biological activity of the test compounds was given compared to the control group.

gastric acid secretion = assay: inhibition of gastric acid secretion by using pylorus ligature (Shay); assay type: in vivo, Wistar rat; conditions: pretreatment 30 min; for ED50 p.o.: 240 min; for % Inhibition in the amount of the acid at a dose of 25 mg/kg p.o.: Table 4, female Wistar rats
Description: (2) Assay of the inhibition of gastric acid secretion by using pylorus ligature [Shay et al., Gastroenterology, 5, 43-61 (1945)]
Before ligating the pylorus the test compounds suspended with Tween were given orally at a volume of 0.5 ml per […] of body weight to female Wistar rats fasted previously for 20 hours. The animals were sacrificed 4 hours after the operation, and the amount of the acid in the stomach was measured by titration with 0.01N sodium hydroxide solution in the presence of phenolphtalein indicator. The pH value of the content of the stomach was measured by using a pH-meter (Radelkis, Type OP-211/1).

Campylobacter pylori = assay: activity against Campylobacter pylori by agar diffusion and agar dilution assays; assay type: cell-based; conditions: Helicobacter pylori, Campylobacter pylori cultures isolated from 5 different ulcerous patients, read-out: MIC (minimal inhibitory concentration)
Description: The activity of the compounds of the present invention against Campylobacter pylori was investigated by agar diffusion and agar dilution assays. The experiments were carried out with Campylobacter pylori cultures isolated from 5 different ulcerous patients.

Molecule	ED50 p.o. ([1]; Table 1)	ED50 p.o. (gastric acid secretion; Table 3, female Wistar rats)	% Inhibition in the amount of the acid at a dose of 25 mg/kg p.o. (gastric acid secretion)	further results
O=C(O)/C=C/S(=O)(=O)c1ccccc1 [C, monoethanolamine salt of 3-phenylsulfonyl-2(E)-propenoic acid]	3.6 mg/kg	11.0 mg/kg	–	–
O=C(O)/C=C/S(=O)(=O)c1ccccc1 [D, bismuth bis [3-phenylsulfonyl-2(E)-propenoate] chloride hexahydrate]	3.1 mg/kg	12.0 mg/kg	–	MIC (Campylobacter pylori): 250 to 1000 µg/mL
O=C(O)/C=C/S(=O)(=O)c1ccccc1 [A, bismuth tris [3-phenylsulfonyl-2(E)-propenoate] pentahydrate]	–	–	–	ED50 ([1]; Rattus norvegicus, po, Table 1): 4 mg/kg; ED50 (gastric acid secretion; Rattus norvegicus, po, 4 h, Table 3, female Wistar rats): 8.6 mg/kg
O.O.O.O.O=C([O-])/C=C/S(=O)(=O)c1ccccc1.O=C([O-])/C=C/S(=O)(=O)c1ccccc1.[Zn+2] [H, zinc bis [3-phenylsulfonyl-2(E)-propenoate] tetrahydrate]	3.2 mg/kg	8.0 mg/kg	–	–
O=C(O)/C=C/S(=O)(=O)c1ccccc1 [E, (S)-arginine salt of 3-phenylsulfonyl-2(E)-propenoic acid]	–	–	56%	% Inhibition at a dose of 10 mg/kg p.o. [1]: 73%
zinc bis [phenylthio-2(Z)-propenoate] hydrate	–	–	–	% Inhibition at a dose of 10 mg/kg p.o. [1]: 61%
O=C(O)/C=C/Sc1ccccc1 [G, bismuth tris [3-phenylthio-2(E)-propenoate] trihydrate]	–	–	15%	–
O=C(O)/C=C/S(=O)(=O)c1ccccc1 [F, (S)-lysine salt of 3-phenylsulfonyl-2(E)-propenoic acid]	4.1 mg/kg	–	50%	–

Source: patent US5021597A, “Novel acrylic acid salts, a process for their preparation, pharmaceutical compositions containing them and their use in the medicine” (Richter Gedeon Vegyeszeti Gyar Rt., priority 1989, dated 1991)
